According to ChEMBL document CHEMBL3885881, “DrugMatrix”:

Organism: Rattus norvegicus
Assay: DrugMatrix - Regimen: Daily Repeat
Assay type: toxicity, organism-based, Sprague-Dawley
Parameters: regimen Daily Repeat, gender Male, age 6-8 weeks
Conditions: in vivo, po, 1200 mg/kg, route oral GAVAGE, dose level High, vehicle .5 % CMC; for ABSOLUTE BASOPHIL / ABSOLUTE EOSINOPHIL / ABSOLUTE LYMPHOCYTE / ABSOLUTE MONOCYTE / ABSOLUTE SEGMENTED NEUTROPHIL / BASOPHIL / EOSINOPHIL / ERYTHROCYTE COUNT / HEMATOCRIT / HEMOGLOBIN / LEUKOCYTE COUNT / LYMPHOCYTE / MEAN CORPUSCULAR HEMOGLOBIN / MEAN CORPUSCULAR HEMOGLOBIN CONCENTRATION / MEAN CORPUSCULAR VOLUME / MONOCYTE / NEUTROPHIL / NUCLEATED RED BLOOD CELLS / PLATELET COUNT: tissue Blood; for ALANINE AMINOTRANSFERASE / ALBUMIN / ALKALINE PHOSPHATASE / ASPARTATE AMINOTRANSFERASE / BLOOD UREA NITROGEN / CARBON DIOXIDE / CHLORIDE / CHOLESTEROL / CREATINE PHOSPHOKINASE / CREATININE / GLUCOSE / LACTATE DEHYDROGENASE / LIPASE / PHOSPHORUS / SODIUM / TOTAL BILIRUBIN / TOTAL PROTEIN / URIC ACID: tissue Plasma

NC(N)=Nc1nc(CSCCC(N)=NS(N)(=O)=O)cs1 [FAMOTIDINE]
ABSOLUTE BASOPHIL (72 h, time 3 day): 0 CELLS/uL | ABSOLUTE EOSINOPHIL (72 h, time 3 day): 179 CELLS/uL | ABSOLUTE LYMPHOCYTE (72 h, time 3 day): 9906 CELLS/uL | ABSOLUTE MONOCYTE (72 h, time 3 day): 48.67 CELLS/uL | ABSOLUTE SEGMENTED NEUTROPHIL (72 h, time 3 day): 1366.33 CELLS/uL | BASOPHIL (72 h, time 3 day): 0% | EOSINOPHIL (72 h, time 3 day): 1.67% | ERYTHROCYTE COUNT (72 h, time 3 day): 5.88 x10E6/uL | HEMATOCRIT (72 h, time 3 day): 36.73% | HEMOGLOBIN (72 h, time 3 day): 13.97 G/DL | LEUKOCYTE COUNT (72 h, time 3 day): 11.5 x10E3/uL | LYMPHOCYTE (72 h, time 3 day): 85.33% | MEAN CORPUSCULAR HEMOGLOBIN (72 h, time 3 day): 23.73 pg | MEAN CORPUSCULAR HEMOGLOBIN CONCENTRATION (72 h, time 3 day): 38.03 G/DL | MEAN CORPUSCULAR VOLUME (72 h, time 3 day): 62.5 fL | MONOCYTE (72 h, time 3 day): 0.67% | NEUTROPHIL (72 h, time 3 day): 12.33% | NUCLEATED RED BLOOD CELLS (72 h, time 3 day): 0 /100WBC | PLATELET COUNT (72 h, time 3 day): 1159.67 x10E3/uL | ALANINE AMINOTRANSFERASE (72 h, time 3 day): 56 u/L | ALBUMIN (72 h, time 3 day): 4.43 G/DL | ALKALINE PHOSPHATASE (72 h, time 3 day): 396.33 u/L | ASPARTATE AMINOTRANSFERASE (72 h, time 3 day): 89 u/L | BLOOD UREA NITROGEN (72 h, time 3 day): 16.33 mg/dL | CARBON DIOXIDE (72 h, time 3 day): 26.33 mmol/L | CHLORIDE (72 h, time 3 day): 106.33 MEQ/L | CHOLESTEROL (72 h, time 3 day): 85.33 mg/dL | CREATINE PHOSPHOKINASE (72 h, time 3 day): 213.67 u/L | CREATININE (72 h, time 3 day): 0.2 mg/dL | GLUCOSE (72 h, time 3 day): 152.33 mg/dL | LACTATE DEHYDROGENASE (72 h, time 3 day): 137.33 u/L | LIPASE (72 h, time 3 day): 8.67 u/L | PHOSPHORUS (72 h, time 3 day): 13.77 mg/dL | SODIUM (72 h, time 3 day): 148.03 MEQ/L | TOTAL BILIRUBIN (72 h, time 3 day): 0.27 mg/dL | TOTAL PROTEIN (72 h, time 3 day): 6.4 G/DL | URIC ACID (72 h, time 3 day): 2.37 mg/dL | ABSOLUTE BASOPHIL (120 h, time 5 day): 0 CELLS/uL | ABSOLUTE EOSINOPHIL (120 h, time 5 day): 254 CELLS/uL | ABSOLUTE LYMPHOCYTE (120 h, time 5 day): 15699.67 CELLS/uL | ABSOLUTE MONOCYTE (120 h, time 5 day): 74 CELLS/uL | ABSOLUTE SEGMENTED NEUTROPHIL (120 h, time 5 day): 1405.67 CELLS/uL | BASOPHIL (120 h, time 5 day): 0% | EOSINOPHIL (120 h, time 5 day): 1.33% | ERYTHROCYTE COUNT (120 h, time 5 day): 5.4 x10E6/uL | HEMATOCRIT (120 h, time 5 day): 34.6% | HEMOGLOBIN (120 h, time 5 day): 13.17 G/DL | LEUKOCYTE COUNT (120 h, time 5 day): 17.43 x10E3/uL | LYMPHOCYTE (120 h, time 5 day): 90% | MEAN CORPUSCULAR HEMOGLOBIN (120 h, time 5 day): 24.43 pg | MEAN CORPUSCULAR HEMOGLOBIN CONCENTRATION (120 h, time 5 day): 38.03 G/DL | MEAN CORPUSCULAR VOLUME (120 h, time 5 day): 64.2 fL | MONOCYTE (120 h, time 5 day): 0.33% | NEUTROPHIL (120 h, time 5 day): 8.33% | NUCLEATED RED BLOOD CELLS (120 h, time 5 day): 0 /100WBC | PLATELET COUNT (120 h, time 5 day): 1387 x10E3/uL | ALANINE AMINOTRANSFERASE (120 h, time 5 day): 59 u/L | ALBUMIN (120 h, time 5 day): 4.4 G/DL | ALKALINE PHOSPHATASE (120 h, time 5 day): 383.67 u/L | ASPARTATE AMINOTRANSFERASE (120 h, time 5 day): 87.67 u/L | BLOOD UREA NITROGEN (120 h, time 5 day): 18 mg/dL | CARBON DIOXIDE (120 h, time 5 day): 25.67 mmol/L | CHLORIDE (120 h, time 5 day): 103.67 MEQ/L | CHOLESTEROL (120 h, time 5 day): 59.33 mg/dL | CREATINE PHOSPHOKINASE (120 h, time 5 day): 259.33 u/L | CREATININE (120 h, time 5 day): 0.27 mg/dL | GLUCOSE (120 h, time 5 day): 182 mg/dL | LACTATE DEHYDROGENASE (120 h, time 5 day): 250.33 u/L | LIPASE (120 h, time 5 day): 8.67 u/L | PHOSPHORUS (120 h, time 5 day): 14.07 mg/dL | SODIUM (120 h, time 5 day): 145.8 MEQ/L | TOTAL BILIRUBIN (120 h, time 5 day): 0.17 mg/dL | TOTAL PROTEIN (120 h, time 5 day): 6.3 G/DL | URIC ACID (120 h, time 5 day): 2.17 mg/dL
